In patent US20240279218A1 (Hoffmann-La Roche Inc., priority 2016, published 2024):

Columns and labels:
h-GABA-A α5β3γ2 [1] = molecular target: T1, h-GABA-A α5β3γ2 (Homo sapiens (Human), UniProt P18507+P31644); test: Two-electrode voltage clamp electrophysiology in Xenopus oocytes expressing GABAA receptors, modulation of GABA EC20 current; type: cell-based; conditions: Xenopus oocytes; for Efficacy (GABA) %: % modulation of GABA EC20 = 100*(Fold increase−1); for Fold increase h-GABA-A α5β3γ2 oocyte: GABA EC20, test compound at approx. 30 fold its Ki
Protocol: Xenopus laevis oocytes at maturation stages V-VI were used for the expression of cloned mRNA encoding GABAA receptor subunits. Oocytes ready for RNA micro-injection were bought from Ecocyte, Castrop-Rauxel, Germany and stored in modified Barth's medium (composition in mM: NaCl 88, KCl 1, NaHCO32.4, HEPES 10, MgSO4 0.82, CaNO3 0.33, CaCl2) 0.33, pH=7.5) at 20° C. until the experiment.
Oocytes were plated in 96-well plates to be used in an automated instrument (Robo-ocyte, MultiChannelSystems, Reutlingen, Germany) for microinjection and electrophysiological recordings. Approximately 50 nl of an aqueous solution containing the RNA transcripts for the subunits of the desired GABAA receptor was injected into each oocyte. RNA concentrations ranged between 0.3 and 16 ng/μl/subunit and were adjusted in pilot experiments to obtain GABA responses of a suitable size and a maximal effect of the reference modulator, Beta-CCM (β-CCM), a betacarboline negative allosteric modulator (NAM) at the GABAA receptor benzodiazepine (BZD) binding site or Midazolam, a benzodiazepine positive allosteric modulator (PAM) at the GABAA receptor benzodiazepine (BZD) binding site. The concentration of the γ2 subunit encoding RNA usually was 5-to 10-fold higher than the RNAs encoding the other subunits. Oocytes were kept in modified Barth's medium (composition in mM: NaCl 88, KCl 1, NaHCO3 4, HEPES 10, MgSO4 0.82, CaNO3 0.33, CaCl2 0.33, pH=7.5) at 20° C. until the experiment.
Electrophysiological experiments were performed on days 3 to 5 after the micro-injection of mRNA. During the experiment the oocytes were constantly superfused by a solution containing (in mM) NaCl 90, KCl 1, HEPES 5, MgCl2 1, CaCl2 1 (pH 7.4). Oocytes were impaled by two glass microelectrodes (resistance: 0.4 MΩ) which were filled with a solution containing KCl 1M+K-acetate 1.5 M and voltage-clamped to −80 mV. The recordings were performed at room temperature using the Roboocyte two-electrode voltage clamp system (Multichannelsystem). After an initial equilibration period of 1.5 min GABA was added for 1.5 min at a concentration evoking approximately 20% of a maximal current response (EC20). After another rest interval of 2.5 min GABA was again added evoking a response of similar amplitude and shape. […] Current traces were recorded at a digitization rate of 10 Hz during and shortly before and after the GABA application.
Each compound and concentration was tested on at least 3 oocytes.
For the analysis, the digitized current traces of the first and second GABA response were superimposed and, if necessary, rescaled to equal maximal amplitudes. The ratio between the two responses during the time interval of test compound application was calculated point by point. The extremum of the resulting “ratio trace” was taken as the efficacy (“Fold increase”) of the compound expressed as “% modulation of GABA EC20” (100*(Fold increase−1)).

h-GABA-A α5β3γ2 [2] = molecular target: T1, h-GABA-A α5β3γ2; test: [3H]flumazenil competition binding assay, membranes of HEK293 cells expressing human GABAA receptors; conditions: displacement of [3H]flumazenil 0.5 nM, HEK293 cells expressing human receptors, mean of two determinations; read-out: Ki h-GABA-A α5β3γ2
Protocol: The affinity of compounds at GABAA receptor subtypes was measured by competition for [3H]flumazenil (85 Ci/mmol; Roche) binding to HEK293 cells expressing rat (stably transfected) or human (transiently transfected) receptors of composition α1β3γ2, α2β3γ2, α3β3γ2 and α5β3γ2.
Cell pellets were suspended in Krebs-tris buffer (4.8 mM KCl, 1.2 mM CaCl2, 1.2 mM MgCl2, 120 mM NaCl, 15 mM Tris; pH 7.5; binding assay buffer), homogenized by polytron for ca. 20 sec on ice and centrifuged for 60 min at 4° C. (50000 g; Sorvall, rotor: SM24=20000 rpm). The cell pellets were resuspended in Krebs-tris buffer and homogenized by polytron for ca. 15 sec on ice. Protein was measured (Bradford method, Bio-Rad) and aliquots of 1 mL were prepared and stored at −80° C.
Assays were incubated to equilibrium for 1 hour at 4° C. and harvested onto GF/C uni-filters (Packard) by filtration using a Packard harvester and washing with ice-cold wash buffer (50 mM Tris; pH 7.5). After drying, filter-retained radioactivity was detected by liquid scintillation counting. Ki values were calculated using Excel-Fit (Microsoft) and are the means of two determinations.

Row | Structure (SMILES) | Efficacy (GABA) % (h-GABA-A α5β3γ2 [1]) | Fold increase h-GABA-A α5β3γ2 oocyte (h-GABA-A α5β3γ2 [1]) | Ki (h-GABA-A α5β3γ2 [2])
1 | Cc1ccc(-c2noc(C)c2COc2ccc(C(=O)NCCC#N)nn2)cn1 [Example 33, N-(2-cyanoethyl)-6-((5-methyl-3-(6-methylpyridin-3-yl)isoxazol-4-yl)methoxy)pyridazine-3-carboxamide] | 76% | 1.76 | 11.6 nM
2 | Cc1ccc(-c2noc(C)c2COc2ccc(C(=O)NC3COC3)nn2)cn1 [Example 35, 6-((5-methyl-3-(6-methylpyridin-3-yl)isoxazol-4-yl)methoxy)-N-(oxetan-3-yl)pyridazine-3-carboxamide] | 82% | 1.82 | 4.4 nM
3 | CCNC(=O)c1ccc(OCc2c(-c3ccc(C)nc3)noc2C)nn1 [Example 37, N-ethyl-6-((5-methyl-3-(6-methylpyridin-3-yl)isoxazol-4-yl)methoxy)pyridazine-3-carboxamide] | 73% | 1.73 | 7.6 nM
4 | Cc1ccc(-c2noc(C)c2COc2ccc(C(=O)NC(C)C)nn2)cn1 [Example 38, N-isopropyl-6-((5-methyl-3-(6-methylpyridin-3-yl)isoxazol-4-yl)methoxy)pyridazine-3-carboxamide] | 84% | 1.84 | 7.5 nM
5 | Cc1ccc(-c2noc(C)c2COc2ccc(C(=O)NCC(C)C)nn2)cn1 [Example 39, N-isobutyl-6-((5-methyl-3-(6-methylpyridin-3-yl)isoxazol-4-yl)methoxy)pyridazine-3-carboxamide] | 89% | 1.89 | 14.6 nM
6 | Cc1ccc(-c2noc(C)c2COc2ccc(C(=O)NCC(F)(F)F)nn2)cn1 [Example 40, 6-((5-methyl-3-(6-methylpyridin-3-yl)isoxazol-4-yl)methoxy)-N-(2,2,2-trifluoroethyl)pyridazine-3-carboxamide] | 91% | 1.91 | 10.6 nM
7 | Cc1ccc(-c2noc(C)c2COc2ccc(C(=O)NC(C)(C)C)nn2)cn1 [Example 41, N-tert-butyl-6-((5-methyl-3-(6-methylpyridin-3-yl)isoxazol-4-yl)methoxy)pyridazine-3-carboxamide] | 104% | 2.04 | 19.4 nM
8 | Cc1ccc(-c2noc(C)c2COc2ccc(C(=O)NC3CC(F)(F)C3)nn2)cn1 [Example 42, N-(3,3-difluorocyclobutyl)-6-((5-methyl-3-(6-methylpyridin-3-yl)isoxazol-4-yl)methoxy)pyridazine-3-carboxamide] | 81% | 1.81 | 8.9 nM
9 | Cc1ccc(-c2noc(C)c2COc2ccc(C(=O)NC3CCC(F)(F)CC3)nn2)cn1 [Example 43, N-(4,4-difluorocyclohexyl)-6-((5-methyl-3-(6-methylpyridin-3-yl)isoxazol-4-yl)methoxy)pyridazine-3-carboxamide] | 82% | 1.82 | 16.4 nM
10 | CNC(=O)c1ccc(OCc2c(-c3ccc(C)nc3)noc2C)nn1 [Example 46, N-methyl-6-((5-methyl-3-(6-methylpyridin-3-yl)isoxazol-4-yl)methoxy)pyridazine-3-carboxamide] | 63% | 1.63 | 3.5 nM
